Laboratory results from PMC8175350, “Drug repurposing screens identify chemical entities for the development of COVID-19 interventions” (Nature Communications, 2021).
pEC50: −log10 of the molar value. Where “and” joins values, the source holds several entries; their conditions need not be identical. Equal entries are not always repeated. Structures can show the parent of a compound that is named as a salt. Where two headings read alike, the source gives them in different places. Residues, ends and D or L forms follow the SMILES beside them. *: point of attachment. Cbz = O=C(OCc1ccccc1)*; CHN2 = [N-]=[N+]=C*

Key:
[1] = test system: SARS-CoV-2; experiment: microbe, parasite or virus in culture; assay type: cell-based; details: for Emax: Severe acute respiratory syndrome coronavirus 2, HeLa-ACE2, 24 h, read-out: HeLa-ACE2 CoV-2 Sinf Average; for HeLa-ACE2 SI: selectivity index, uninfected HeLa-ACE2 CC50 / SARS-CoV-2 EC50
[2] = Uninfected HeLa-ACE2 24 h live/dead cytotoxicity counter screen; assay type: cell-based, human; details: human, uninfected HeLa-ACE2 cells
[3] = test system: SARS-CoV-2; experiment: microbe, parasite or virus in culture; assay type: cell-based
[4] = test system: SARS-CoV-2; experiment: microbe, parasite or virus in culture; assay type: cell-based; details: for pEC50: read-out: HeLa-ACE2 TOA CoV-2 EC50 GeoMean
[5] = test system: SARS-CoV-2; assay type: cell-based
[6] = test system: HeLa-ACE2 cells; experiment: Total cell count in the HeLa-ACE2 TOA (time of addition) assay; assay type: cell-based, human; details: Homo sapiens, HeLa-ACE2; read-out: HeLa-ACE2 TOA cell count EC50 GeoMean
[7] = test system: Calu-3 cells
[8] = test system: HeLa-ACE2 cells; experiment: cells; details: Homo sapiens; for pEC50: HeLa-ACE2, read-out: HeLa-ACE2 cell count EC50 GeoMean
[9] = test system: Calu-3 cells; experiment: cells; details: Homo sapiens; for pEC50: Calu-3, read-out: Calu-3 cell count EC50 GeoMean
[10] = in vitro; details: human, Calu-3 uninfected cytotoxicity CC50 GeoMean
[11] = in vitro; details: human
[12] = in vitro; details: human; remark: listed apart in the source
[13] = test system: HeLa-ACE2 cells; experiment: Uninfected HeLa-ACE2 24 h live/dead cytotoxicity counter screen; assay type: cell-based, human
[14] = test system: SARS-CoV-2; assay type: cell-based; details: 72 hpi
[15] = test system: SARS-CoV-2; experiment: Golden Syrian hamster SARS-CoV-2 efficacy model, body weight; assay type: in vivo; details: for hamster weight relative to day 0, individual animals: 500 mg/kg PO
[16] = test system: SARS-CoV-2; experiment: Hamster lung viral titer by plaque assay, day 5; assay type: in vivo, Golden Syrian hamster; details: 500 mg/kg PO; values look like log10
[17] = Pharmacokinetic studies in Syrian hamsters, PO; assay type: in vivo; details: 500 mg/kg PO; for AUC(0-t): po, 500 mg/kg
Protocol: Pharmacokinetic studies were conducted at Scripps Research Institute’s Animal Models Core in accordance with IACUC guidelines (IACUC Protocol #09-0004-5). Eight-week-old male Syrian Hamsters (Charles River; three per group) were dosed PO as indicated for each compound and formulation. Plasma concentration of each test article was monitored up to 48 h. Nelfinavir was formulated in 10% DMSO/90% corn oil and MK-4482 was formulated in 10% PEG400/2.5% Cremaphor RH40 for both pharmacokinetic and efficacy studies.

[18] = test system: HeLa-ACE2 cells; experiment: Total cell count in the HeLa-ACE2 TOA assay; assay type: cell-based; details: Homo sapiens
Source text: Supplement 41467_2021_23328_MOESM3_ESM.xlsx, sheet "Table S1" | column: HeLa-ACE2 TOA cell count

[19] = ref [33]-[49], cited from earlier work
[20] = HepG2 72 h CellTiter-Glo cytotoxicity; details: human, HepG2 cells
[21] = test system: HepG2; experiment: HepG2 72 h CellTiter-Glo cytotoxicity; details: 72 h
[22] = HEK293T 72 h CellTiter-Glo cytotoxicity; details: human, HEK293T cells
[23] = test system: HEK293T; experiment: HEK293T 72 h CellTiter-Glo cytotoxicity; details: 72 h
[24] = Uninfected Calu-3 48 h Cell-Titer Glo cytotoxicity counter screen; details: human, uninfected Calu-3 cells, Calu-3 Uninf. cells CC50 (µM), reconfirmed hits
[25] = test system: Calu-3 cells; experiment: as above; details: curve plateau at infinite concentration
[26] = Severe acute respiratory syndrome coronavirus 2, HeLa-ACE2, detail column, read-out: HeLa-ACE2 CoV-2 EC50 GeoMean
[27] = read-out: HeLa-ACE2 uninfected cytotoxicity CC50 GeoMean
[28] = Severe acute respiratory syndrome coronavirus 2, Calu-3, read-out: Calu-3 CoV-2 EC50 GeoMean
[29] = Severe acute respiratory syndrome coronavirus 2, HeLa-ACE2, detail column
[30] = curve plateau at infinite concentration
[31] = male, Syrian, hamster, plasma, 10%DMSO/90% Corn Oil

With `CCOC(=O)[C@@H]1O[C@H]1C(=O)N[C@@H](CC(C)C)C(=O)N1CCN(Cc2ccc(OC)c(OC)c2OC)CC1` [NCO 700] the Emax [1] was 90%, the pEC50 [1, 26] was 6.10 and the “HeLa-ACE2 SI” value [1] was greater than 50.44. For the same molecule, the CC50 at 24 h [2, 27] was greater than 39.8 µM, the pEC50 [3, 28] was less than 5.00 and the “TOA:HeLa-ACE2 EC50 Ratio” value [4] was 12.146. The pEC50 [4, 29] was less than 5.02, the “HeLa-ACE2 synergy score with remdesivi” value ([5]; combination with remdesivir) was 0.209 δ and the pEC50 [6] was less than 5.02. The “uninfected Calu-3 CC50” value [7] was > 29.867 ×÷ 1.001 (n=3) μM, the Emax ([8]; HeLa-ACE2, 24 h, read-out: HeLa-ACE2 cell count Sinf Average) was -26% and the pEC50 [8] was less than 5.29. For the same molecule, the pEC50 [9] was less than 5.00, the CC50 at 48 h [10] was greater than 29.9 µM and the CC50 at 72 h [11] was greater than 39.8 µM. For the same molecule, the CC50 at 72 h [12] was greater than 39.8 µM.

`Cc1c(O)cccc1C(=O)N[C@@H](CSc1ccccc1)[C@H](O)CN1C[C@H]2CCCC[C@H]2C[C@H]1C(=O)NC(C)(C)C` [Nelfinavir mesylate] gave an Emax [1, 30] of 100%, a pEC50 ([1]; Severe acute respiratory syndrome coronavirus 2, HeLa-ACE2, reconfirmed hits, read-out: HeLa-ACE2 SARS-CoV-2 EC50) of less than 5.06 and a CC50 at 24 h ([2]; reconfirmed hits, read-out: HeLa-ACE2 Uninf. cells CC50) greater than 18 µM. For the same molecule, the CC50 at 24 h [2, 27] was greater than 18 µM, the “HeLa-ACE2 uninfected cytotoxicity Sinf Average” value [13, 30] was -100% and the Emax ([3]; Severe acute respiratory syndrome coronavirus 2, Calu-3, 48 h, curve plateau at infinite concentration, read-out: Calu-3 CoV-2 Sinf Average) was 90%. For the same molecule, the pEC50 ([3]; Severe acute respiratory syndrome coronavirus 2, Calu-3, reconfirmed hits, read-out: Calu-3 SARS-CoV-2 EC50) was 6.44, the Emax ([4]; Severe acute respiratory syndrome coronavirus 2, HeLa-ACE2, 10 h, curve plateau at infinite concentration, read-out: HeLa-ACE2 TOA CoV-2 Sinf Average) was 100% and the pEC50 ([4]; Severe acute respiratory syndrome coronavirus 2, HeLa-ACE2) was less than 5.08. The “Synergy score with remdesivir (δ)” value [5] was −1.23, the interaction with remdesivir ([5]; ZIP model) was “additive (Additive effect: -10< δ <10)” and the “dose-response point, normalized infected cells” value ([5]; alone, Concentration [uM] -7.08145) was 8.854 and 6.527 and 6.904. The “HeLa-ACE2 synergy score with remdesivi [δ]” value ([5]; combination with remdesivir, synergy score δ) was -1.233, the “reduction in apical viral loads” value [14] was greater than 1 log and the “protection from weight loss and viral replication” value ([15]; 500 mg/kg PO BID) was “failed to protect animals from weight loss and viral replication”. For the same molecule, the “hamster weight relative to day 0, individual animals” value ([15]; Day 1) was 99.1786 and 96.9182 and 97.0207 and 99.8527, the “hamster weight relative to day 0, individual animals” value ([15]; Day 2) was 97.2793 and 94.4654 and 95.1466 and 96.8581 and the “hamster weight relative to day 0, individual animals” value ([15]; Day 3) was 95.4312 and 90.7547 and 93.8011 and 92.8326. The “hamster weight relative to day 0, individual animals” value ([15]; Day 4) was 92.4025 and 86.7925 and 92.1672 and 89.1998, the “hamster weight relative to day 0, individual animals” value ([15]; Day 5) was 90.1951 and 82.0755 and 91.0139 and 86.6961 and the “viral titers in lungs, individual animals” value [16] was 9.667 and 7.176 and 8.778 and 9.217. For the same molecule, the “plasma level of nelfinavir, individual animals” value (“plasma level of nelfinavir” below) ([17]; 0:30:00) was 40.7 and 326 and 282, the “plasma level of nelfinavir” value ([17]; 1:00:00) was 20.2 and 6320 and 206 and the “plasma level of nelfinavir” value ([17]; 3:00:00) was 108 and 244 and 71.4. For the same molecule, the “plasma level of nelfinavir” value ([17]; 7:00:00) was 156 and 276 and 245, the “Cl (mL/min/kg)” value ([17]; 10%DMSO/90% Corn Oil) was 2,542.16 mL/min/kg and the “Vd” value ([17]; 10%DMSO/90% Corn Oil) was 706.35 L/kg. For the same molecule, the “plasma level of nelfinavir” value ([17]; 24:00:00) was “BQL and 41 and 2.73”, the “plasma level of nelfinavir” value ([17]; 32:00:00) was “BQL and 16.9 and 0.47” and the “plasma level of nelfinavir” value ([17]; 48:00:00) was “BQL (2×) and 1.81”. The “plasma exposure versus HeLa-ACE2 SARS-CoV-2 EC50” value ([17]; hamster) was “failed to reach exposures above HeLa-ACE2 SARS-CoV-2 EC50”, the AUC(0-t) ([17]; male, Syrian, hamster, plasma, 10%DMSO/90% Corn Oil, read-out: AUC0-24) was 3760 ng·h/mL and the AUC(0-t) ([17]; male, Syrian, hamster, plasma, 10%DMSO/90% Corn Oil, read-out: AUCLAST) was 3870 ng·h/mL. It also gave an AUC(0-inf) [17, 31] of 5480 ng·h/mL, a Cmax [17, 31] of 2250 ng/mL and an MRT [17, 31] of 5.82 h. For the same molecule, the Tmax [17, 31] was 2.83 h, the half-life [17, 31] was 4.02 h and the Emax ([18]; HeLa-ACE2, 10 h, read-out: HeLa-ACE2 TOA cell count Sinf Average) was 100%. For the same molecule, the pEC50 ([18]; HeLa-ACE2, read-out: HeLa-ACE2 TOA cell count EC50 GeoMean) was less than 5.02, the pEC50 [8] was less than 5.02 and the Emax ([9]; Calu-3, 48 h, read-out: Calu-3 cell count Sinf Average) was 79%. For the same molecule, the pEC50 [9] was 6.06, the “Approx. t1/2” value ([19]; human) was 7 h and the Cmax ([19]; read-out: Approx. Cmax, human oral) was 17 µM. For the same molecule, the CC50 at 72 h [20] was greater than 39.8 µM, the “HepG2 72-hour cytotoxicity Sinf Average” value [21] was -100% and the CC50 at 72 h [22] was 15.7 µM. The “HEK293T 72-hour cytotoxicty Sinf Average” value [23] was -100%, the CC50 at 48 h [24] was greater than 9.4 µM and the “Calu-3 uninfected cytotoxicity Sinf Average” value [25] was -93%.

For `CC(C)CC(NC(=O)OCc1ccccc1)C(=O)NC(C(=O)NCC(=O)C=[N+]=[N-])C(C)C` (stereo not drawn) [Z LVG CHN2] (Cbz-Leu-Val-Gly-CHN2; configuration not given here), the Emax [1] was 87%, the pEC50 [1, 26] was 7.14 and the “HeLa-ACE2 SI” value [1] was greater than 554.29. For the same molecule, the CC50 at 24 h [2, 27] was greater than 39.8 µM, the “HeLa-ACE2 uninfected cytotoxicity Sinf Average” value ([13]; human, uninfected HeLa-ACE2 cells, 24 h) was -100% and the pEC50 [3, 28] was less than 5.00. The “TOA:HeLa-ACE2 EC50 Ratio” value [4] was 133.491, the pEC50 [4, 29] was less than 5.02 and the pEC50 [6] was less than 5.02. For the same molecule, the “uninfected Calu-3 CC50” value [7] was > 29.867 ×÷ 1.001 (n=3) μM, the pEC50 [8] was less than 5.02 and the pEC50 [9] was less than 5.00. The CC50 at 48 h [10] was greater than 29.9 µM, the CC50 at 72 h [11] was greater than 39.8 µM and the CC50 at 72 h [12] was greater than 39.8 µM.
